What follows are compounds tested on MT4 (assay: Compound was tested for the inhibition of HIV-1 in MT-4 human T-lymphoid cells infected with IIIB isolate). Conditions: read-out: ID50 (the source's name).
Type: functional

**Q.** For `CC(C)CN(C[C@@H](O)[C@H](Cc1ccccc1)NC(=O)O[C@@H]1CCS(=O)(=O)[C@@H]1C(C)C)S(=O)(=O)c1ccc(N)cc1`, which IC50 is on record?
**A.** 40 nM

**Q.** With `COc1ccc(S(=O)(=O)N(CC(C)C)C[C@@H](O)[C@H](Cc2ccccc2)NC(=O)O[C@H]2CO[C@H]3OCC[C@H]32)cc1` as the compound, how does the IC50 read?
**A.** 1.4 nM

**Q.** With `CC(C)CN(C[C@@H](O)[C@H](Cc1ccccc1)NC(=O)O[C@H]1CCOC1)S(=O)(=O)c1ccc(N)cc1` as the compound, how does the IC50 read?
**A.** 15 nM

**Q.** Which IC50 does the source give for `Cc1ccc(S(=O)(=O)N(CC(C)C)C[C@@H](O)[C@H](Cc2ccccc2)NC(=O)O[C@H]2CO[C@H]3OCC[C@H]32)cc1` here?
**A.** 3.5 nM

**Q.** `COc1ccc(S(=O)(=O)N(CC(C)C)C[C@@H](O)[C@H](Cc2ccccc2)NC(=O)O[C@H]2CCOC2)cc1` was tested. Which IC50 did it give?
**A.** 12 nM

**Q.** How did the IC50 turn out when `COc1ccc(S(=O)(=O)N(CC(C)C)C[C@@H](O)[C@H](Cc2ccccc2)NC(=O)O[C@H]2CCSC2)cc1` was run?
**A.** 47 nM

**Q.** For `COc1ccc(S(=O)(=O)N(CC(C)C)C[C@@H](O)[C@H](Cc2ccccc2)NC(=O)O[C@H]2CCS(=O)(=O)C2)cc1`, which IC50 is on record?
**A.** 19 nM

**Q.** Which IC50 does the source give for `COc1ccc(S(=O)(=O)N(CC(C)C)C[C@@H](O)[C@H](Cc2ccccc2)NC(=O)O[C@@H]2CO[C@@H]3OCCC[C@@H]32)cc1` here?
**A.** 4.5 nM

**Q.** With `CC(C)CN(C[C@@H](O)[C@H](Cc1ccccc1)NC(=O)O[C@H]1CO[C@H]2OCC[C@H]21)S(=O)(=O)c1ccc(N)cc1` as the compound, how does the IC50 read?
**A.** 4.5 nM

**Q.** `COc1ccc(S(=O)(=O)N(CC(C)C)C[C@@H](O)[C@H](Cc2ccccc2)NC(=O)O[C@@H]2CCS(=O)(=O)[C@@H]2C(C)C)cc1` was tested. Which IC50 did it give?
**A.** 18 nM

These compounds were tested against Human immunodeficiency virus type 1 protease (Human immunodeficiency virus 1, UniProt Q72874) (assay: Inhibitory activity against HIV-1 protease). Conditions: not given.

**Q.** `CC(C)CN(C[C@@H](O)[C@H](Cc1ccccc1)NC(=O)O[C@@H]1CCS(=O)(=O)[C@@H]1C(C)C)S(=O)(=O)c1ccc(N)cc1` was tested. Which Ki did it give?
**A.** 1.5 nM

**Q.** With `COc1ccc(S(=O)(=O)N(CC(C)C)C[C@@H](O)[C@H](Cc2ccccc2)NC(=O)O[C@H]2CO[C@H]3OCC[C@H]32)cc1` as the compound, how does the Ki read?
**A.** 1.1 nM

**Q.** `CC(C)CN(C[C@@H](O)[C@H](Cc1ccccc1)NC(=O)O[C@H]1CCOC1)S(=O)(=O)c1ccc(N)cc1` was tested. Which Ki did it give?
**A.** 1.6 nM

**Q.** `Cc1ccc(S(=O)(=O)N(CC(C)C)C[C@@H](O)[C@H](Cc2ccccc2)NC(=O)O[C@H]2CO[C@H]3OCC[C@H]32)cc1` was tested. Which Ki did it give?
**A.** 1.2 nM

**Q.** How did the Ki turn out when `COc1ccc(S(=O)(=O)N(CC(C)C)C[C@@H](O)[C@H](Cc2ccccc2)NC(=O)O[C@H]2CCOC2)cc1` was run?
**A.** 1.5 nM

**Q.** `COc1ccc(S(=O)(=O)N(CC(C)C)C[C@@H](O)[C@H](Cc2ccccc2)NC(=O)O[C@H]2CCSC2)cc1` was tested. Which Ki did it give?
**A.** 2.5 nM

**Q.** `COc1ccc(S(=O)(=O)N(CC(C)C)C[C@@H](O)[C@H](Cc2ccccc2)NC(=O)O[C@H]2CCS(=O)(=O)C2)cc1` was tested. Which Ki did it give?
**A.** 1.2 nM

**Q.** How did the Ki turn out when `COc1ccc(S(=O)(=O)N(CC(C)C)C[C@@H](O)[C@H](Cc2ccccc2)NC(=O)O[C@@H]2CO[C@@H]3OCCC[C@@H]32)cc1` was run?
**A.** 2.2 nM

**Q.** With `COc1ccc(S(=O)(=O)N(CC(C)C)C[C@@H](O)[C@H](Cc2ccccc2)NC(=O)O[C@@H]2CCS(=O)(=O)[C@@H]2C(C)C)cc1` as the compound, how does the Ki read?
**A.** 1.4 nM
